# Tests used:
# anti-caffeine antibody [1] = experiment: Modified competitive lateral flow assay for caffeine with two test lines; type: binding, mouse
# Procedure: The LFA was assembled using a nitrocellulose membrane attached to a plastic backing card. Anti-caffeine antibody and avidin were immobilised at test lines 1 and 2, respectively, in the detection zone. […] The membrane was dried at RT for 2 hours. The wick was attached to the membrane (2 mm overlap) and the plastic card was cut into strips (5 mm x 60 mm). Glass fibre conjugate pads were soaked in 30% (w/v) sucrose in Milli-Q water and dried in an oven at 37°C. […] The conjugate pad was attached to the membrane and the prepared strips were kept in a desiccator until use.
# Different concentrations of caffeine in 2% (w/v) BSA were prepared in respective wells of a low-binding 96-well microplate. The test strips were placed into each well vertically for 3 min, after which they were removed and left to dry. Images of the test strips were taken and analysed by ImageJ software. The grey level of the pixels in each test line was measured and subtracted from the background.
# The effects of applying different concentrations of caffeine to the LFA were investigated to determine the working range and sensitivity that can be achieved for caffeine detection. The LFA test strips were prepared according to the design of the assay shown in Figure 3 and run using different concentrations of caffeine ranging from 1 ng/mL to 100 µg/mL. The optimised running buffer included glycerol as an agent to regulate wicking rate, and BSA and Tween-20 as blocking agents to reduce non-specific binding.
# As well as visual inspection, the signal intensity of the test lines was analysed using ImageJ software. The signal intensities of test lines 1 and 2 at different caffeine concentrations were plotted in a semi-log graph as shown in Figure 11 (results were measured in triplicates). […] Table 1 - Semi-quantitative analysis of caffeine concentration based on the ratio between the signal intensities of test lines 1 and 2.
# anti-caffeine antibody [2] = experiment: Competitive ELISA (free caffeine vs caffeine conjugate)
# Procedure: (§1) A 96-well ELISA plate was coated with anti-caffeine antibody (50 µL, 6 µg/mL, in PBS buffer, pH 7.4) by incubating the plate for 1 hour at RT. The plate was blocked with 2% (w/v) BSA in PBS with 0.05% (v/v) Tween-20, pH 7.4, for 2 hours at RT. BSA-biotin-caffeine conjugate (50 µL) at different concentrations were added to the plate and incubated for 1 hour at RT. HRP-labelled avidin (50 µL, 1:5000 dilution in blocking buffer) was added and the plate was incubated for 1 hour in the dark at RT. After thorough washing of the plate, the colour was developed by adding 3,3',5,5'-tetramethylbenzidine (TMB) liquid substrate system (50 µL). The reaction was stopped by the addition of 1 M H2SO4 (50 µL) and the absorbance at 450 nm was recorded.
# (§2) Same general protocol as direct ELISA. Plate was coated with anti-caffeine antibody (50 µL, 6 µg/mL, in PBS buffer, pH 7.4) and blocked with 2% (w/v) BSA in PBS with 0.05% (v/v) Tween-20, pH 7.4. BSA-biotin-caffeine conjugate (25 µL, 40 mg/mL) was mixed with caffeine (25 µL) at different concentrations of the latter, added to the plate and incubated for 1 hour at RT. HRP-labelled avidin (50 µL, 1:5000 dilution) was added and the colour was developed by adding TMB liquid substrate system (50 µL). The reaction was stopped by the addition of 1 M H2SO4 (50 µL) and the absorbance at 450 nm was recorded.
# (§3) The same ELISA format was used to test the competition of the BSA-biotin-caffeine conjugate and free caffeine for binding to the anti-caffeine antibody coated on the wells. A fixed amount of BSA-biotin-caffeine conjugate (20 µg/mL) was used and the concentration of free caffeine was varied.
# anti-caffeine antibody [3] = test system: anti-caffeine antibody
# Procedure: as §1, §2, §3
# [4] = test system: anti-3-Nitrotyrosine antibody; experiment: Lateral flow assay for NHPA in synthetic urine; type: binding
# Procedure: The LFA was assembled using a nitrocellulose membrane attached to a plastic backing card (Figure 13). An anti-3-Nitrotyrosine antibody line was printed at 1mg/mL concentration, the line consisted of 20 lines, each with 25 µm width, using 0.1 µL antibody solution/cm/line. A streptavidin line was printed at 1mg/mL concentration and consisted of 10 lines, each with 50 µm width, using 0.1 µL streptavidin solution/cm/line. The membrane was sealed in a foil bag with desiccant silica gel sachets and stored in the fridge until used.
# On the test day the wicking pad (5 x 17 mm) was attached to the membrane (2 mm overlap) and the plastic card was cut into strips (5 mm width). Glass fibre conjugate pads (5 x 7 mm) were soaked in AuNP-BSA-biotin-NHPA conjugate (0.5 OD) and dried in a desiccator for 2 hours. The conjugate pad was then attached to the membrane (2mm overlap). […]
# Different concentrations of NHPA in synthetic urine (200 µL) were prepared in respective wells of a low-binding 96-well microplate. […] The images of the test strips (Figure 14) were analysed by ImageJ software. […] The grey level of the pixels in each test line was measured and subtracted from the background to calculate each line intensity and its dependence on the NHPA concentration (Figure 15b).
# avidin = avidin (Gallus gallus, UniProt P02701); details: association constant from literature (Hermanson); cited from earlier work
# Chain of avidin (P02701 25-152, species assumed): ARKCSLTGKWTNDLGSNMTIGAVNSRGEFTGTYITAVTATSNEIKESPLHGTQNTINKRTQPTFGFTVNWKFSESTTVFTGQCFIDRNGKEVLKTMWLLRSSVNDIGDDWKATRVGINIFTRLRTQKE
# [5] = strips kept in a desiccator for seven days at room temperature
structure (smiles),measurement,setting,value
Cn1c(=O)c2c(ncn2C)n(C)c1=O [caffeine],IC50 value of test line 1,"anti-caffeine antibody [1]; anti-caffeine antibody line, signal intensity by ImageJ, triplicates, fresh strips",5 ng/mL
same,IC50 value of test line 2,"anti-caffeine antibody [1]; avidin line, signal intensity by ImageJ, triplicates, fresh strips",8 ng/mL
same,IC50 value of test line 1,anti-caffeine antibody [1]; [5],3 ng/mL
same,IC50 value of test line 2,anti-caffeine antibody [1]; [5],11 ng/mL
same,visual detection limit,"anti-caffeine antibody [1]; test line 1 only (no colour developed), no calibration",10000 ng/mL
same,visual detection limit,"anti-caffeine antibody [1]; test line 2, strips stored seven days at room temperature",10 ng/mL
same,visual detection limit,"anti-caffeine antibody [1]; with the second test line (test line 2), fresh strips",10 ng/mL
same,"detection limit, determined by the concentration of caffeine that results in 10% inhibition",anti-caffeine antibody [2]; BSA-biotin-caffeine conjugate (20 µg/mL) as competitor,0.03 ng/mL
same,IC50 value,"anti-caffeine antibody [2]; fixed BSA-biotin-caffeine conjugate (20 µg/mL), free caffeine varied, absorbance at 450 nm, dose response fit",1 ng/mL
same,IC50,anti-caffeine antibody [3],7 ng/mL
"O=C(O)Cc1ccc(O)c([N+](=O)[O-])c1 [NHPA, 3-nitro-4-hydroxyphenylacetic acid]",decrease of the antibody line's intensity,[4]; 250 ng/ml of NHPA in urine samples (synthetic urine),over 90%
same,threshold of the assay for NHPA detection in urine,"[4]; synthetic urine, also printed as 250 ± 80 ng/ml",170 to 330 ng/mL
"O=C(O)c1ccccc1N=Nc1ccc(O)cc1 [HABA, 4'-hydroxyazobenzene-2-carboxylic acid]",binding affinity for avidin,avidin,6e+06 M⁻¹
O=C(O)CCCC[C@@H]1SC[C@@H]2NC(=O)N[C@@H]21 [biotin],binding affinity for avidin,avidin,1.3e+15 M⁻¹

# From patent EP4455667B1, “DEVICE FOR DETECTING MOLECULES” (Viscera Technologies Ltd, priority 2023, dated 2024)
